The results in this text go back to patent US10857136B2, “Compounds for use in the prevention and/or treatment of non-alcoholic fat liver disease and non-alcoholic steatohepatitis” (SJT MOLECULAR RESEARCH, SL, priority 2017, dated 2020).

Type in all cases: in vivo
Assay [1] relates to DIO mice (C57Bl/6J male mice). Nature of the assay: Insulin resistance (HOMA-IR), 36 days assay in DIO mice. Particulars: 50 mg/kg orally twice daily for 36 days, days 1, 8, 15, 22, 29 and 36, vs saline control, similar to metformin 150 mg/kg. On the procedure: To assess the performance of the compounds disclosed in decreasing insulin resistance, DIO mice (C57Bl/6J male mice) were treated with hydrochloride salts of compounds 4a, 5a; and with compound 7a during 36 days, versus a control treated with saline (0.9% NaCl) and versus DIO mice treated with metformin as a positive control.
For the assessment, 60 C57Bl/6 J male mice (16-week-old at delivery and 40 g of average weight), obtained from Charles River France put on high fat diet for 10 weeks. The animals were housed in ventilated and enriched housing cages (310×125×127 mm^3) throughout the experimental phase. Animals' cages litters were changed at least once a week. Mice were housed in groups of 10 mice on a normal 12 hours light cycle (at 08:00 pm lights were switched off), at 22±2° C. and 50±10% relative humidity. After reception, mice were maintained for three additional acclimation weeks. During the whole test (acclimation+treatment phase) a high fat diet (D12492 purchased from Research Diet Inc.; 60% fat) and tap water were provided ad libitum.
After the acclimation period, mice were fasted for 6 hours and blood glucose and plasma insulin were measured. Ten animals, those with lower blood glucose/plasma insulin, were discarded from the study. […]
Body weight were weekly measured as well as blood glucose and plasma insulin after a 6 hour-fasting.
Blood glucose was measured by sampling blood from the tip of the tail: a drop of blood is collected and placed on a glucometer strip (Accu-Check® glucometer, Roche, Switzerland). Plasma insulin was detected via ELISA (Elisa Kit, Eurobio, France) using 5 μl samples.
The Homeostatic model assessment-insulin resistance index (HOMA-IR), which is used to quantify insulin resistance, was calculated from fasting blood glucose, and plasma insulin values as follows: HOMA-IR=(mM glucose×μU/mL insulin)/22.5, being this constant a normalizing factor (Matthews et al., 1985, Diabetologia 28(7), 412-9).

Assay [2] deals with DIO-NASH mice (C57Bl/6J male mice). Nature of the assay: NAFLD activity score (NAS) of liver biopsies pre and post study in DIO-NASH mice. Particulars: 50 mg/kg, p.o., b.i.d., 8 weeks, score range 0-8. On the procedure:
Non-alcoholic fat liver disease (NAFLD) activity score or NAS was evaluated by measurements of steatosis, lobular inflammation, ballooning degeneration and […] of the liver.
Total NAS score represents the sum of scores for steatosis, inflammation, and ballooning, and ranges from 0-8 as follows:
The % of steatosis degree refers to the amount of surface area of the sample involved by steatosis as evaluated on low to medium power examination.
The value given to measure inflammation corresponds to the number of inflammatory foci per field using a 200× magnification. A focus is defined as a cluster, not a row, of >3 inflammatory cells. Acidophil bodies are not included in the inflammatory assessment.
The ballooning degeneration value is measured by the amount of balloon cells, corresponding to degenerated hepatocytes with cleared cytoplasm, enlargement, swelling, rounding and reticulated cytoplasm. […]
Liver samples were fixed in formalin, paraffin embedded, and sections were stained with hematoxylin and eosin (H&E) and Sirius Red. Samples are scored for NAS and fibrosis using of the clinical criteria outlined by Kleiner et al. 2005. […]

Assay [3] shares this test system. The assay can be described thus: Liver inflammation: galectin-3 IHC staining in DIO-NASH mice. Particulars: 50 mg/kg, p.o., b.i.d., 8 weeks. As for the experimental part: To assess the effect of the compounds of the invention in inflammation of liver in the treatment of non-alcoholic fat liver disease, liver galactin-3 (inflammation marker) levels were determined after a 8 weeks study where DIO-NASH mice (C57Bl/6J male mice) were treated with a hydrochloride salt of compound 4a during 8 weeks (50 mg/kg, p.o., b.i.d.), versus a pathological control of DIO-NASH mice and a non-pathological control LEAN-CHOW mice, both treated with the vehicle (0.9% NaCl).
Galectin-3 was measured via galtactin-3 IHC staining: galectin-3 (Biolegend, Cat. #125402) IHC were performed using standard procedures. Briefly, after antigen retrieval and blocking of endogenous peroxidase activity, slides were incubated with primary antibody. The primary antibody was detected using a linker secondary antibody followed by amplification using a polymeric HRP-linker antibody conjugate. Next, the primary antibody was visualized with DAB as chromogen. Finally, sections were counterstained in hematoxylin and cover-slipped.

Assay [4] shares this test system. The assay can be described thus: Liver weight, 8 weeks assay in DIO-NASH mice. Particulars: 50 mg/kg, p.o., b.i.d., vs DIO-NASH vehicle. On the procedure:
The animals were kept and examined under the same conditions were used as in example 2.2. The liver biopsies were also carried out under the same conditions as in example 2.2.
To assess the effect of compound 4a on liver weight of mice with non-alcoholic fat liver disease, DIO-NASH mice (C57Bl/6J male mice) were treated with a hydrochloride salt of compound 4a during 8 weeks (50 mg/kg, p.o., b.i.d.), versus a pathological control of DIO-NASH mice and a non-pathological control LEAN-CHOW mice, both treated with the vehicle (0.9% NaCl). The DIO-NASH mice group were put on high fat diet (40% AMLN diet, D09100301 Research Diets, USA) and a control group (LEAN-CHOW) was put on a regular chow diet (Altromin 1324, Brogaarden, Denmark) for 35 weeks prior to the study.

Consider `COc1ccc(-c2nc(C(=O)NCCN)cc3c2[nH]c2ccccc23)cc1` [Compound 4a, N(-ethylamine)-1-benzosubstituted-β-carboline-3-carboxamide], for which the “insulin resistance (HOMA-IR)” value in assay [1] is “lower insulin resistance compared to the control animals”. The “NAS score change of the liver biopsy pre and post study” value in assay [2] was “generally reduced the NAS score”. Also, the “anti-galectin-3 staining, representative images of liver samples” value in assay [3] (end of study) is “visible change in this inflammation marker”. Besides, in assay [3] (vs DIO-NASH vehicle), the “total liver galectin-3 content determined by morphometry” value is “reduced total galectin-3 content”. Moreover, the total liver weight entry in assay [4] was “reduced liver weight”.
